ChEMBL document CHEMBL5303304, “EUbOPEN Chemogenomics Library - IncuCyte” (2023)

How the values were obtained:
Format in all cases: toxicity, cell-based
[1] = tested on: HEK-293T; test: Incucyte cell viability with HEK293T; settings: human, 10 µM, compound concentration 10 uM
[2] = tested on: Fibroblast; test: Incucyte cell viability with human fibroblast; settings: 10 µM, compound concentration 10 uM
[3] = tested on: U2OS; test: Incucyte cell viability with U2OS; settings: human, 10 µM, compound concentration 10 uM
Note: unitless GR value; below 1 slowed growth and below 0 cell loss.

Compound	Growth Rate ([1]; 6 h, replicate number 1)	Growth Rate ([1]; 6 h, replicate number 2)	Growth Rate ([1]; 12 h, replicate number 2)	Growth Rate ([2]; 6 h, replicate number 2)	Growth Rate ([2]; 24 h, replicate number 2)	Growth Rate ([3]; 6 h, replicate number 1)	Growth Rate ([3]; 6 h, replicate number 2)	Growth Rate ([3]; 12 h, replicate number 2)	Growth Rate ([3]; 18 h, replicate number 2)	Growth Rate ([3]; 24 h, replicate number 1)	Growth Rate ([3]; 24 h, replicate number 2)	Growth Rate ([1]; 0 h, replicate number 1)	Growth Rate ([1]; 0 h, replicate number 2)	Growth Rate ([1]; 18 h, replicate number 2)	Growth Rate ([1]; 24 h, replicate number 2)	Growth Rate ([2]; 0 h, replicate number 1)	Growth Rate ([2]; 0 h, replicate number 2)	Growth Rate ([2]; 12 h, replicate number 1)	Growth Rate ([2]; 12 h, replicate number 2)	Growth Rate ([2]; 6 h, replicate number 1)	further results
CCc1cc2c(cc1N1CCC(N3CCOCC3)CC1)C(C)(C)c1[nH]c3cc(C#N)ccc3c1C2=O [ALECTINIB]	0.56	0.59	0.86	0.58	0.89	0.77	0.78	0.78	1	0.91	0.94	–	–	–	–	–	–	–	–	–	Growth Rate ([1]; 12 h, replicate number 1): 0.83; Growth Rate ([1]; 18 h, replicate number 1): 0.95
CC(C)[C@H](C(=O)Nc1ccc(C(=O)NO)cc1)c1ccccc1 [AR-42]	–	–	–	0.66	0.61	–	0.73	0.96	0.44	0	0.11	-0.15	0.49	0.59	0.37	0.71	0.62	-1	0.61	–	Growth Rate ([1]; 24 h, replicate number 1): 0.89; Growth Rate ([2]; 18 h, replicate number 1): -0.41; Growth Rate ([2]; 18 h, replicate number 2): 0.42; Growth Rate ([2]; 24 h, replicate number 1): 0.78; Growth Rate ([3]; 12 h, replicate number 1): 0.83; Growth Rate ([3]; 18 h, replicate number 1): 0.46
CN(C(=O)c1cnn2cccnc12)c1cc2c(cc1N1CCOCC1)C(=O)N(C[C@@H](F)C(C)(C)O)C2	–	0.77	0.85	0.95	–	0.54	0.75	-0.78	0.92	–	0.85	0.82	0.66	1	0.92	–	0.71	0.84	0.89	0.38	Growth Rate ([2]; 18 h, replicate number 1): 0.7; Growth Rate ([2]; 24 h, replicate number 1): 0.82; Growth Rate ([3]; 0 h, replicate number 1): 0.99; Growth Rate ([3]; 12 h, replicate number 1): 0.98; Growth Rate ([3]; 18 h, replicate number 1): 0.75
C[C@@H]1CC[C@@]2(OC1)O[C@H]1[C@@H](O)[C@H]3[C@@H]4CC[C@H]5C[C@@H](O[C@@H]6O[C@H](CO)[C@H](O[C@@H]7O[C@H](CO)C(O)[C@H](O[C@@H]8OC[C@@H](O)[C@H](O)[C@H]8O)[C@H]7O[C@@H]7O[C@H](CO)[C@H](O)[C@H](O[C@@H]8O[C@H](CO)[C@@H](O)[C@H](O)[C@H]8O)[C@H]7O)[C@H](O)[C@H]6O)[C@H](O)C[C@]5(C)[C@H]4CC[C@]3(C)[C@H]1[C@@H]2C (some centres undefined) [DIGITONIN]	–	0.94	0.65	0.68	0.85	–	0.68	0.67	0.6	1	0.6	-0.37	–	0.68	0.72	0.3	0.94	–	0.67	–	Growth Rate ([2]; 18 h, replicate number 1): 0.93; Growth Rate ([2]; 18 h, replicate number 2): 0.73; Growth Rate ([2]; 24 h, replicate number 1): 0.88; Growth Rate ([3]; 0 h, replicate number 1): 0.49; Growth Rate ([3]; 0 h, replicate number 2): 0.74; Growth Rate ([3]; 12 h, replicate number 1): 0.85; Growth Rate ([3]; 18 h, replicate number 1): 0.96
Cc1ccccc1Oc1cc(-n2c(=O)cc(C(F)(F)F)[nH]c2=O)c2ccccc2c1Cl [BAY-069]	0.59	0.24	0.38	–	–	0.02	0.72	0.77	0.86	0.81	0.86	0.78	-0.96	0.39	0.45	0.91	0.05	0.51	–	0.84	Growth Rate ([1]; 12 h, replicate number 1): 0.74; Growth Rate ([1]; 18 h, replicate number 1): 0.72; Growth Rate ([1]; 24 h, replicate number 1): 0.64; Growth Rate ([2]; 18 h, replicate number 1): 0.76; Growth Rate ([2]; 24 h, replicate number 1): 0.75; Growth Rate ([3]; 0 h, replicate number 1): -0.77; Growth Rate ([3]; 0 h, replicate number 2): 0.42; Growth Rate ([3]; 12 h, replicate number 1): -0.7; Growth Rate ([3]; 18 h, replicate number 1): 0.63
CN(C)CCCN1c2ccccc2Sc2ccc(Cl)cc21.Cl [CHLORPROMAZINE HYDROCHLORIDE]	0.64	0.48	0.52	–	–	–	-0.06	0.12	0.33	0.91	0.39	–	-0.89	0.37	0.19	–	0.33	-0.38	–	-0.57	Growth Rate ([1]; 12 h, replicate number 1): 0.66; Growth Rate ([1]; 18 h, replicate number 1): 0.18; Growth Rate ([1]; 24 h, replicate number 1): 0.15; Growth Rate ([2]; 18 h, replicate number 1): -0.35; Growth Rate ([2]; 24 h, replicate number 1): -0.22; Growth Rate ([3]; 0 h, replicate number 1): -0.42; Growth Rate ([3]; 0 h, replicate number 2): -0.21; Growth Rate ([3]; 12 h, replicate number 1): 0.42; Growth Rate ([3]; 18 h, replicate number 1): 0.77
CN(C)[C@H]1CCN(c2cc(C(F)(F)F)c(C#N)c(Nc3cccc(CCC(=O)O)c3)n2)C1.O=C(O)C(F)(F)F	0.73	–	–	-0.53	0.72	0.63	0.38	0.78	0.89	–	0.88	–	0.79	–	–	–	–	–	0.75	0.81	Growth Rate ([1]; 12 h, replicate number 1): 0.95; Growth Rate ([1]; 18 h, replicate number 1): 0.94; Growth Rate ([2]; 18 h, replicate number 1): 0.99; Growth Rate ([2]; 18 h, replicate number 2): 0.93; Growth Rate ([3]; 0 h, replicate number 1): 0.61; Growth Rate ([3]; 0 h, replicate number 2): 0.54
Fc1ccc(-c2nc(-c3c(F)cccc3F)[nH]c2-c2ccncc2)cc1	–	0.27	0.5	–	–	–	–	–	0.97	–	0.76	-0.47	0.65	0.62	0.68	-0.99	0.29	–	–	–	Growth Rate ([3]; 0 h, replicate number 1): -1
H-LVVYPWT-OH [SPINORPHIN]	0.99	–	–	-0.61	0.94	0.61	0.08	0.43	0.66	–	0.92	0.9	0.94	–	–	-0.25	-0.78	-1	0.52	-0.34	Growth Rate ([2]; 18 h, replicate number 1): 0.38; Growth Rate ([2]; 18 h, replicate number 2): 0.87; Growth Rate ([2]; 24 h, replicate number 1): 0.41; Growth Rate ([3]; 0 h, replicate number 1): 0.44; Growth Rate ([3]; 0 h, replicate number 2): -1; Growth Rate ([3]; 12 h, replicate number 1): 0.76; Growth Rate ([3]; 18 h, replicate number 1): 0.82
CCN1CCN(Cc2ccc(NC(=O)Nc3ccc(Oc4cc(NC)ncn4)cc3)cc2C(F)(F)F)CC1 [AST-487]	–	-0.54	-0.4	–	0.4	–	–	0.86	0.41	0.19	0.08	-0.91	–	-0.29	-0.21	0.93	–	–	–	-1	Growth Rate ([2]; 18 h, replicate number 2): 0.81; Growth Rate ([3]; 0 h, replicate number 2): -0.84; Growth Rate ([3]; 18 h, replicate number 1): 0.36
COc1cc(N)c(Cl)cc1C(=O)NC1CN2CCC1CC2.Cl (centres undefined)	-0.18	-0.12	0.19	-0.28	–	0.67	0.95	–	1	–	–	–	–	0.29	0.38	–	-0.73	0.48	–	-0.82	Growth Rate ([1]; 12 h, replicate number 1): 0.31; Growth Rate ([1]; 18 h, replicate number 1): 0.18; Growth Rate ([1]; 24 h, replicate number 1): 0.31; Growth Rate ([3]; 0 h, replicate number 2): -0.2; Growth Rate ([3]; 12 h, replicate number 1): 0.95
CS(=O)(=O)c1cc(C2(NC(=O)c3cncc4c3cnn4-c3ccc(F)cc3)CC2)ccn1 [BI 639667]	0.52	–	–	–	–	0.64	–	0.76	–	–	–	–	-0.17	–	–	–	-0.75	–	0.97	–	Growth Rate ([1]; 12 h, replicate number 1): 0.77; Growth Rate ([1]; 18 h, replicate number 1): 0.9; Growth Rate ([1]; 24 h, replicate number 1): 1
CCOc1cc(CC(=O)N[C@@H](CC(C)C)c2ccccc2N2CCCCC2)ccc1C(=O)O [REPAGLINIDE]	–	–	–	–	0.86	–	–	0.94	0.96	0.99	–	0.91	0.8	–	–	–	–	–	0.38	–	Growth Rate ([2]; 18 h, replicate number 2): 0.61
Cc1ncc(C(=O)Nc2cc(C(C)(C)C)on2)cc1-n1cc(-c2cnn(C)c2C)nn1.Cl	0.99	0.65	–	0.14	0.95	0.8	0.94	–	0.92	–	0.58	-0.6	–	–	–	0.92	0.23	0.95	0.79	0.69	–
